Data: PubChem BioAssay (NCI)
Where “and” joins values, the source holds several entries; their conditions need not be identical. Identical values can stand only once.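 96-well plates; 48 h exposure; 5 concentrations. Endpoints by linear interpolation between flanking doses. Not reached: highest tested concentration assigned. GI50 is the concentration that inhibits growth by half. Definition used: TGI = concentration required for complete inhibition of growth.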

test system: DMS 114 small cell lung; assay: inhibition of tumour cell growth, NCI panel, 48 h

Structure (SMILES)	TGI
CC1=NN(C(=O)CC(=O)Nc2ccccc2F)C(=O)C1N=Nc1ccccc1[N+](=O)[O-] (stereo not given)	> 100 µM
N#CC1=C(c2ccccc2)NNC(c2ccc(Cl)cc2)CC1=O (stereo not given)	> 100 µM
CSC(=Nc1ccccc1)N(c1ccccc1)c1nc(=[N+](C)C)ss1	0.46 µM

test system: MDA-MB-435; assay: inhibition of tumour cell growth, NCI panel, 48 h

Structure (SMILES)	TGI
C(/C=C(\Nc1ccccc1)C12CC3CC(CC(C3)C1)C2)=Nc1ccccc1	34.3 µM
NCCNCC1CCNCC1	> 100 µM
c1ccc2c(c1)[nH]c1c2cc[n+]2cc3c(cc12)CCCC3	6.34 µM and 7.54 µM

test system: HCT-15 colon; assay: inhibition of tumour cell growth, NCI panel, 48 h

Structure (SMILES)	TGI	GI50
C(/C=C(\Nc1ccccc1)C12CC3CC(CC(C3)C1)C2)=Nc1ccccc1	28 µM	
CC1=NN(C(=O)CC(=O)Nc2ccccc2F)C(=O)C1N=Nc1ccccc1[N+](=O)[O-] (stereo not given)	> 100 µM	
N#CC1=C(c2ccccc2)NNC(c2ccc(Cl)cc2)CC1=O (stereo not given)	> 100 µM	
NCCNCC1CCNCC1	> 100 µM	
c1ccc2c(c1)[nH]c1c2cc[n+]2cc3c(cc12)CCCC3	> 100 µM and 23.2 µM	23.3 µM
CSC(=Nc1ccccc1)N(c1ccccc1)c1nc(=[N+](C)C)ss1	13.7 µM	

test system: OVCAR-4 ovarian; assay: inhibition of tumour cell growth, NCI panel, 48 h

Structure (SMILES)	TGI	GI50
C(/C=C(\Nc1ccccc1)C12CC3CC(CC(C3)C1)C2)=Nc1ccccc1	48.8 µM	
CC1=NN(C(=O)CC(=O)Nc2ccccc2F)C(=O)C1N=Nc1ccccc1[N+](=O)[O-] (stereo not given)	> 100 µM	
N#CC1=C(c2ccccc2)NNC(c2ccc(Cl)cc2)CC1=O (stereo not given)	> 100 µM	
NCCNCC1CCNCC1	> 100 µM	
c1ccc2c(c1)[nH]c1c2cc[n+]2cc3c(cc12)CCCC3	7.6 µM and 5.73 µM	2.14 µM
CSC(=Nc1ccccc1)N(c1ccccc1)c1nc(=[N+](C)C)ss1	21.5 µM	

test system: HCT-116 colon; assay: inhibition of tumour cell growth, NCI panel, 48 h

Structure (SMILES)	TGI	GI50
C(/C=C(\Nc1ccccc1)C12CC3CC(CC(C3)C1)C2)=Nc1ccccc1	27 µM	
CC1=NN(C(=O)CC(=O)Nc2ccccc2F)C(=O)C1N=Nc1ccccc1[N+](=O)[O-] (stereo not given)	> 100 µM	
N#CC1=C(c2ccccc2)NNC(c2ccc(Cl)cc2)CC1=O (stereo not given)	> 100 µM	
NCCNCC1CCNCC1	> 100 µM	
c1ccc2c(c1)[nH]c1c2cc[n+]2cc3c(cc12)CCCC3	14.2 µM and 4.66 µM	3.3 µM
CSC(=Nc1ccccc1)N(c1ccccc1)c1nc(=[N+](C)C)ss1	12 µM	

test system: COLO 205 colon; assay: inhibition of tumour cell growth, NCI panel, 48 h

Structure (SMILES)	TGI	GI50
C(/C=C(\Nc1ccccc1)C12CC3CC(CC(C3)C1)C2)=Nc1ccccc1	32.6 µM	
CC1=NN(C(=O)CC(=O)Nc2ccccc2F)C(=O)C1N=Nc1ccccc1[N+](=O)[O-] (stereo not given)	> 100 µM	
NCCNCC1CCNCC1	> 100 µM	
c1ccc2c(c1)[nH]c1c2cc[n+]2cc3c(cc12)CCCC3	5.45 µM and 3.56 µM	1.9 µM
CSC(=Nc1ccccc1)N(c1ccccc1)c1nc(=[N+](C)C)ss1	3.88 µM	

test system: SN12C renal; assay: inhibition of tumour cell growth, NCI panel, 48 h

Structure (SMILES)	TGI	GI50
C(/C=C(\Nc1ccccc1)C12CC3CC(CC(C3)C1)C2)=Nc1ccccc1	36.2 µM	
CC1=NN(C(=O)CC(=O)Nc2ccccc2F)C(=O)C1N=Nc1ccccc1[N+](=O)[O-] (stereo not given)	> 100 µM	
N#CC1=C(c2ccccc2)NNC(c2ccc(Cl)cc2)CC1=O (stereo not given)	> 100 µM	
NCCNCC1CCNCC1	> 100 µM	
c1ccc2c(c1)[nH]c1c2cc[n+]2cc3c(cc12)CCCC3	12.8 µM and 12.1 µM	3.05 µM
CSC(=Nc1ccccc1)N(c1ccccc1)c1nc(=[N+](C)C)ss1	14.7 µM	

test system: SF-295 CNS; assay: inhibition of tumour cell growth, NCI panel, 48 h

Structure (SMILES)	TGI
C(/C=C(\Nc1ccccc1)C12CC3CC(CC(C3)C1)C2)=Nc1ccccc1	36.5 µM
CC1=NN(C(=O)CC(=O)Nc2ccccc2F)C(=O)C1N=Nc1ccccc1[N+](=O)[O-] (stereo not given)	> 100 µM
N#CC1=C(c2ccccc2)NNC(c2ccc(Cl)cc2)CC1=O (stereo not given)	73.1 µM
NCCNCC1CCNCC1	> 100 µM
c1ccc2c(c1)[nH]c1c2cc[n+]2cc3c(cc12)CCCC3	16 µM and 14.5 µM
CSC(=Nc1ccccc1)N(c1ccccc1)c1nc(=[N+](C)C)ss1	25.1 µM

test system: A549 NSCLC; assay: inhibition of tumour cell growth, NCI panel, 48 h

Structure (SMILES)	TGI	GI50
C(/C=C(\Nc1ccccc1)C12CC3CC(CC(C3)C1)C2)=Nc1ccccc1	73.3 µM	
CC1=NN(C(=O)CC(=O)Nc2ccccc2F)C(=O)C1N=Nc1ccccc1[N+](=O)[O-] (stereo not given)	> 100 µM	
N#CC1=C(c2ccccc2)NNC(c2ccc(Cl)cc2)CC1=O (stereo not given)	> 100 µM	
NCCNCC1CCNCC1	> 100 µM	
c1ccc2c(c1)[nH]c1c2cc[n+]2cc3c(cc12)CCCC3	24.6 µM and 30.8 µM	4.88 µM
CSC(=Nc1ccccc1)N(c1ccccc1)c1nc(=[N+](C)C)ss1	33.7 µM	

test system: HCC-2998 colon; assay: inhibition of tumour cell growth, NCI panel, 48 h

Structure (SMILES)	TGI	GI50
C(/C=C(\Nc1ccccc1)C12CC3CC(CC(C3)C1)C2)=Nc1ccccc1	33.2 µM	
N#CC1=C(c2ccccc2)NNC(c2ccc(Cl)cc2)CC1=O (stereo not given)	> 100 µM	
NCCNCC1CCNCC1	> 100 µM	
c1ccc2c(c1)[nH]c1c2cc[n+]2cc3c(cc12)CCCC3	7.71 µM and 4.66 µM	2.67 µM
CSC(=Nc1ccccc1)N(c1ccccc1)c1nc(=[N+](C)C)ss1	20.7 µM	

test system: SK-OV-3 ovarian; assay: inhibition of tumour cell growth, NCI panel, 48 h

Structure (SMILES)	TGI
C(/C=C(\Nc1ccccc1)C12CC3CC(CC(C3)C1)C2)=Nc1ccccc1	46.5 µM
CC1=NN(C(=O)CC(=O)Nc2ccccc2F)C(=O)C1N=Nc1ccccc1[N+](=O)[O-] (stereo not given)	> 100 µM
N#CC1=C(c2ccccc2)NNC(c2ccc(Cl)cc2)CC1=O (stereo not given)	> 100 µM
NCCNCC1CCNCC1	> 100 µM
c1ccc2c(c1)[nH]c1c2cc[n+]2cc3c(cc12)CCCC3	14.2 µM and 14.4 µM
CSC(=Nc1ccccc1)N(c1ccccc1)c1nc(=[N+](C)C)ss1	38.5 µM

test system: HOP-18 NSCLC; assay: inhibition of tumour cell growth, NCI panel, 48 h

Structure (SMILES)	TGI
N#CC1=C(c2ccccc2)NNC(c2ccc(Cl)cc2)CC1=O (stereo not given)	> 100 µM

test system: DU-145 prostate; assay: inhibition of tumour cell growth, NCI panel, 48 h

Structure (SMILES)	TGI
C(/C=C(\Nc1ccccc1)C12CC3CC(CC(C3)C1)C2)=Nc1ccccc1	56.7 µM
NCCNCC1CCNCC1	> 100 µM
c1ccc2c(c1)[nH]c1c2cc[n+]2cc3c(cc12)CCCC3	11 µM and 17 µM

test system: MALME-3M melanoma; assay: inhibition of tumour cell growth, NCI panel, 48 h

Structure (SMILES)	TGI	GI50
C(/C=C(\Nc1ccccc1)C12CC3CC(CC(C3)C1)C2)=Nc1ccccc1	36.9 µM	
CC1=NN(C(=O)CC(=O)Nc2ccccc2F)C(=O)C1N=Nc1ccccc1[N+](=O)[O-] (stereo not given)	> 100 µM	
N#CC1=C(c2ccccc2)NNC(c2ccc(Cl)cc2)CC1=O (stereo not given)	> 100 µM	
NCCNCC1CCNCC1	> 100 µM	
c1ccc2c(c1)[nH]c1c2cc[n+]2cc3c(cc12)CCCC3	3.54 µM	1.65 µM
CSC(=Nc1ccccc1)N(c1ccccc1)c1nc(=[N+](C)C)ss1	22.6 µM	

test system: SK-MEL-2 melanoma; assay: inhibition of tumour cell growth, NCI panel, 48 h

Structure (SMILES)	TGI	GI50
CC1=NN(C(=O)CC(=O)Nc2ccccc2F)C(=O)C1N=Nc1ccccc1[N+](=O)[O-] (stereo not given)	> 100 µM	
N#CC1=C(c2ccccc2)NNC(c2ccc(Cl)cc2)CC1=O (stereo not given)	90.4 µM	
NCCNCC1CCNCC1	> 100 µM	
c1ccc2c(c1)[nH]c1c2cc[n+]2cc3c(cc12)CCCC3		1.44 µM
CSC(=Nc1ccccc1)N(c1ccccc1)c1nc(=[N+](C)C)ss1	11.7 µM	

test system: M19-MEL melanoma; assay: inhibition of tumour cell growth, NCI panel, 48 h

Structure (SMILES)	TGI
CC1=NN(C(=O)CC(=O)Nc2ccccc2F)C(=O)C1N=Nc1ccccc1[N+](=O)[O-] (stereo not given)	33.6 µM
CSC(=Nc1ccccc1)N(c1ccccc1)c1nc(=[N+](C)C)ss1	4.98 µM

test system: HOP-62 NSCLC; assay: inhibition of tumour cell growth, NCI panel, 48 h

Structure (SMILES)	TGI	GI50
C(/C=C(\Nc1ccccc1)C12CC3CC(CC(C3)C1)C2)=Nc1ccccc1	45.7 µM	
CC1=NN(C(=O)CC(=O)Nc2ccccc2F)C(=O)C1N=Nc1ccccc1[N+](=O)[O-] (stereo not given)	> 100 µM	
N#CC1=C(c2ccccc2)NNC(c2ccc(Cl)cc2)CC1=O (stereo not given)	73.8 µM	
NCCNCC1CCNCC1	> 100 µM	
c1ccc2c(c1)[nH]c1c2cc[n+]2cc3c(cc12)CCCC3	17 µM and 7.86 µM	3.77 µM
CSC(=Nc1ccccc1)N(c1ccccc1)c1nc(=[N+](C)C)ss1	27.2 µM	
